pKi: −log10 of the molar value.
How the values were obtained:
[1] = target: T1, human CB2 receptor (hCB2) (Homo sapiens, UniProt P34972); assay: [3H]-CP […] competition radioligand binding on HEK293 membranes
T1 construct: gene CNR2; 3-HA tagged CB2 receptor

[2] = target: T2, human CB1 receptor (hCB1) (Homo sapiens, UniProt P21554); assay: as above
T2 construct: gene CNR1
T2 sequence (P21554 whole entry): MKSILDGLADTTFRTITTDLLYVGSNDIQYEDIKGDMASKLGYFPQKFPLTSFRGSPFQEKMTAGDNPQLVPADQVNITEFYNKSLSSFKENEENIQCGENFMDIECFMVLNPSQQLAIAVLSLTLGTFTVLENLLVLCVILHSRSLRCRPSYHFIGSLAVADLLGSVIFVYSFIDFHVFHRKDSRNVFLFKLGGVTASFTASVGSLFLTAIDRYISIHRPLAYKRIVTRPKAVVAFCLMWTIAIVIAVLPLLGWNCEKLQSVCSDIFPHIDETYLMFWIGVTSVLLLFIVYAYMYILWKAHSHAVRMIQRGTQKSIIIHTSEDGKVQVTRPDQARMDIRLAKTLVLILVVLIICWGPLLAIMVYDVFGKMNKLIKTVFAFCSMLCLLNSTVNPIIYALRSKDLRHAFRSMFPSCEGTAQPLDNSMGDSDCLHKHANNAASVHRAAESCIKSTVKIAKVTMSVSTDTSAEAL

T1 sequence (P34972 whole entry): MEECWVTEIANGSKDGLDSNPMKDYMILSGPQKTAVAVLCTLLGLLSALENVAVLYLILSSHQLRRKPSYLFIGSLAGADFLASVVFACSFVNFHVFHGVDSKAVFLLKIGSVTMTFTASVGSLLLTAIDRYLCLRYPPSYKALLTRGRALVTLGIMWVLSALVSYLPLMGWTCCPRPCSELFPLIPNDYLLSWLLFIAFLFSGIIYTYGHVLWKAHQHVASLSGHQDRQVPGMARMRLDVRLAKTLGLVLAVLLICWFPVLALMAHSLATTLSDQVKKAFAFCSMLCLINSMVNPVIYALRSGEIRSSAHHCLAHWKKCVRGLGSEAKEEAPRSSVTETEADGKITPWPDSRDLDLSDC

SMILES: CC(C)(NC(=O)c1nn(CCCCC#N)c2ccccc12)c1ccccc1 [compound 1, 1-(4-cyanobutyl)-N-(2-phenylpropan-2-yl)indazole-3-carboxamide]
- pKi [1]: 7.83
- pKi [2]: 8.59
